Experimental data taken from patent publication US20260042755A1, “GPR6 INVERSE AGONISTS” (MapLight Therapeutics, Inc., priority 2022, published 2026).

Assays:
GPR6 = target: T1, GPR6 (Homo sapiens, UniProt P46095); assay: GPR6 antagonist functional cAMP assay (LANCE Ultra cAMP TR-FRET, CHO cells stably expressing GPR6); format: cell-based
T1 construct: expressed in transfected cells; host or cells: CHO cells
Experimental: (§1) Example 56. GPR6 and GPR3 Antagonist Functional cAMP Assay
(§2) CHO cells stably expressing GPR6 or GPR3 receptors were dissociated from cell culture flasks and incubated for 2 h at 37° C. in a 10 cm dish in a humidified incubator. Cells were dissociated, counted to have 1e6 cells/mL (4.5e6 cells needed/384-well plate), washed once in starved media, than in D-PBS and finally suspended in assay buffer (Krebs-Ringer Bicarbonate Buffer with 1800 mg/L glucose, without calcium chloride and sodium bicarbonate (Sigma) in the presence of 0.1% BSA and 150 μM of Ro 20-1724 Phosphodiesterase inhibitor).
(§3) Cells in suspension from above were plated in 384-well white Optiplate (PerkinElmer) at 10,000 cells/well/10 μl, briefly centrifuged prior direct addition of compounds ([…]) in 10 mM DMSO using a Tecan D300e Digital Dispenser, final DMSO in each well was normalized to 0.1%. Cells were incubated in the presence of compounds for 45 min at 37° C. in a humidified incubator.
(§4) To measure cAMP levels, LANCE® Ultra cAMP assay (Perkin Elmer), a homogeneous time-resolved fluorescence resonance energy transfer (TR-FRET) immunoassay was used following manufacturer's recommendations. Plates were shaken for 1 h at room temperature before reading on a Tecan InfiniteF200Pro multi-mode plate reader using standard FRET settings (Excitation 340 nm, Emission at 615 nm). FRET values were reported as readings obtained at 665 nm. Data were normalized to DMSO (0.1%) and reference compounds (100%) and fit to a 4-parameter logistical fit to generate antagonist IC50s.

GPR3 = target: T2, GPR3 (Homo sapiens, UniProt P46089); assay: GPR3 antagonist functional cAMP assay (LANCE Ultra cAMP TR-FRET, CHO cells stably expressing GPR3); format: cell-based
T2 construct: expressed in transfected cells; host or cells: CHO cells
T2 sequence (P46089 whole entry, species assumed): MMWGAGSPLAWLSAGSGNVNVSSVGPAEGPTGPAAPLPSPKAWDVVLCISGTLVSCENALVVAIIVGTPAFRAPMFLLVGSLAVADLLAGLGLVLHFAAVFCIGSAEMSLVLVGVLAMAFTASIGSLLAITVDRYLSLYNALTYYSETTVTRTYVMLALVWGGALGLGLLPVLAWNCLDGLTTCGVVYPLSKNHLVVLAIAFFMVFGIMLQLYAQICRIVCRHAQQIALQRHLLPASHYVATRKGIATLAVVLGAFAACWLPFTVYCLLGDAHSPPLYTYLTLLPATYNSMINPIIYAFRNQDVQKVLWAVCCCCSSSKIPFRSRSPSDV
Experimental: as §1, §2, §3, §4

[1] = CHO cells stably expressing GPR6, cAMP assay (Example 24)
[2] = CHO cells stably expressing GPR3, cAMP assay (Example 24)
[3] = CHO cells stably expressing GPR6, cAMP assay
[4] = CHO cells stably expressing GPR3, cAMP assay

T1 sequence (P46095 whole entry): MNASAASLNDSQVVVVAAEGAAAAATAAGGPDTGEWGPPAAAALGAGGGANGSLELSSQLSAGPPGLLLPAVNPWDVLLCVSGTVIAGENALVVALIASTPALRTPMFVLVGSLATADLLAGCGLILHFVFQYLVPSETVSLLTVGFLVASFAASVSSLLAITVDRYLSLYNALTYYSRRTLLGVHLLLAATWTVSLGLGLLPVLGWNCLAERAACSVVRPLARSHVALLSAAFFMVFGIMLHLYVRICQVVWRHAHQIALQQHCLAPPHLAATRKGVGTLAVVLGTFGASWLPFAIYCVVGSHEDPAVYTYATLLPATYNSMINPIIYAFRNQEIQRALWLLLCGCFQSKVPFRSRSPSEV

IC50 (GPR6; [3])	IC50 (GPR3; [4])	SMILES	other results
100 to 1000 nM	1000 to 30000 nM	CC(C)(O)[C@@H](O)c1cc2nc(N3CCC(Oc4ccc(F)cc4F)CC3)c(-c3cnn(C(F)F)c3)nc2cn1 (single isomer, unassigned) [Compound 555]	
< 100 nM	100 to 1000 nM	Cn1cc(-c2nc3cc(C(O)C(C)(C)O)ncc3nc2N2CCC(Oc3ccc(F)cc3F)CC2)cn1 (single isomer, unassigned) [Compound 561]	
< 100 nM	100 to 1000 nM	Cn1cc(-c2nc3cc(C(O)C(C)(C)O)ncc3nc2N2CCC(Oc3ccc(F)cc3F)CC2)cn1 (single isomer, unassigned) [Compound 562]	
< 100 nM	1000 to 30000 nM	CCn1cc(-c2nc3cnc([C@H](O)C(C)(C)O)cc3nc2N2CCC(Oc3ccc(F)cc3F)CC2)cn1 (single isomer, unassigned) [Compound 571]	
100 to 1000 nM	1000 to 30000 nM	CC(C)(O)[C@H](O)c1cc2nc(N3CCN(Cc4ccc(F)cc4F)CC3)c(-c3cnn(C4CC4)c3)nc2cn1 (single isomer, unassigned) [Compound 576]	
< 100 nM	100 to 1000 nM	CCn1cc(-c2nc3cc(C(O)C(C)(C)O)ncc3nc2N2CCC(Oc3ccc(F)cc3F)CC2)cn1 (single isomer, unassigned) [Compound 588]	
< 100 nM	100 to 1000 nM	CCn1cc(-c2nc3cc(C(O)C(C)(C)O)ncc3nc2N2CCC(Oc3ccc(F)cc3F)CC2)cn1 (single isomer, unassigned) [Compound 589]	
100 to 1000 nM	1000 to 30000 nM	CC(C)(O)[C@@H](O)c1cc2nc(N3CCC(Oc4ccc(F)cc4F)CC3)c(-c3cnn(CF)c3)nc2cn1 (single isomer, unassigned) [Compound 597]	
< 100 nM	100 to 1000 nM	CC(C)(O)C(O)c1cc2nc(-c3cnn(C4CC4)c3)c(N3CCN(Cc4ccc(F)cc4F)CC3)nc2cn1 (single isomer, unassigned) [Compound 600]	
< 100 nM	1000 to 30000 nM	CC(C)(O)C(O)c1cc2nc(-c3cnn(CF)c3)c(N3CCN(Cc4ccc(F)cc4F)CC3)nc2cn1 (single isomer, unassigned) [Compound 603]	

More lines, now with the values behind:

SMILES	IC50 (GPR6; [3])	IC50 (GPR3; [4])	other results
CC(=O)N1Cc2nc(-c3cnn(C)c3)c(N3CCC(Oc4ccc(F)cc4F)CC3)nc2CC1C (single isomer, unassigned) [Compound 446]			IC50 (GPR6; [1]): 100 to 1000 nM; IC50 (GPR3; [2]): 1000 to 30000 nM
C[C@H](O)[C@H](O)c1cc2nc(N3CCC(Oc4ccc(F)cc4F)CC3)c(-c3cnn(C)c3)nc2cn1 (single isomer, unassigned) [Compound 471]			IC50 (GPR6; [1]): 100 to 1000 nM; IC50 (GPR3; [2]): 1000 to 30000 nM
C[C@@H](O)[C@@H](O)c1cc2nc(N3CCC(Oc4ccc(F)cc4F)CC3)c(-c3cnn(C)c3)nc2cn1 (single isomer, unassigned) [Compound 472]			IC50 (GPR6; [1]): 100 to 1000 nM; IC50 (GPR3; [2]): 1000 to 30000 nM
CC(C)(O)[C@H](O)c1cc2nc(N3CCC(Oc4ccc(F)cc4F)CC3)c(-c3cnn(C(F)F)c3)nc2cn1 (single isomer, unassigned) [Compound 554]	< 100 nM	1000 to 30000 nM	
Cn1cc(-c2nc3cnc([C@@](C)(O)CO)cc3nc2N2CCC(Oc3ccc(F)cc3F)CC2)cn1 (single isomer, unassigned) [Compound 564]	100 to 1000 nM	1000 to 30000 nM	
Cn1cc(-c2nc3cnc([C@](C)(O)CO)cc3nc2N2CCC(Oc3ccc(F)cc3F)CC2)cn1 (single isomer, unassigned) [Compound 565]	1000 to 30000 nM	1000 to 30000 nM	
CCn1cc(-c2nc3cnc([C@@H](O)C(C)(C)O)cc3nc2N2CCC(Oc3ccc(F)cc3F)CC2)cn1 (single isomer, unassigned) [Compound 570]	< 100 nM	1000 to 30000 nM	
CC(C)(O)[C@H](O)c1cc2nc(N3CCC(Oc4ccc(F)cc4F)CC3)c(-c3cnn(C4CC4)c3)nc2cn1 (single isomer, unassigned) [Compound 572]	100 to 1000 nM	1000 to 30000 nM	
CC(C)(O)[C@@H](O)c1cc2nc(N3CCC(Oc4ccc(F)cc4F)CC3)c(-c3cnn(C4CC4)c3)nc2cn1 (single isomer, unassigned) [Compound 573]	100 to 1000 nM	1000 to 30000 nM	
CCn1cc(-c2nc3cnc([C@@H](O)C(C)(C)O)cc3nc2N2CCN(Cc3ccc(F)cc3F)CC2)cn1 (single isomer, unassigned) [Compound 574]	100 to 1000 nM	1000 to 30000 nM	
Cn1cc(-c2nc3cnc([C@@H](O)C(C)(C)O)cc3nc2N2CCN(Cc3ccc(F)cc3F)CC2)cn1 (single isomer, unassigned) [Compound 578]	100 to 1000 nM	1000 to 30000 nM	
Cn1cc(-c2nc3cnc([C@H](O)C(C)(C)O)cc3nc2N2CCN(Cc3ccc(F)cc3F)CC2)cn1 (single isomer, unassigned) [Compound 579]	< 100 nM	100 to 1000 nM	
CC(C)(O)C(O)c1cc2nc(-c3cnn(C(F)F)c3)c(N3CCC(Oc4ccc(F)cc4F)CC3)nc2cn1 (single isomer, unassigned) [Compound 583]	< 100 nM	1000 to 30000 nM	
CC(C)(O)C(O)c1cc2nc(-c3cnn(C(F)F)c3)c(N3CCC(Oc4ccc(F)cc4F)CC3)nc2cn1 (single isomer, unassigned) [Compound 584]	< 100 nM	1000 to 30000 nM	
CC(C)(O)C(O)c1cc2nc(-c3cnn(C(F)F)c3)c(N3CCN(Cc4ccc(F)cc4F)CC3)nc2cn1 (single isomer, unassigned) [Compound 585]	< 100 nM	100 to 1000 nM	
CC(C)(O)C(O)c1cc2nc(-c3cnn(C(F)F)c3)c(N3CCN(Cc4ccc(F)cc4F)CC3)nc2cn1 (single isomer, unassigned) [Compound 586]	< 100 nM	100 to 1000 nM	

SMILES	IC50 (GPR6; [3])	IC50 (GPR3; [4])	other results
CC(C)(O)C(O)c1cc2nc(-c3cnn(C4CC4)c3)c(N3CCC(Oc4ccc(F)cc4F)CC3)nc2cn1 (single isomer, unassigned) [Compound 590]	< 100 nM	100 to 1000 nM	
CC(C)(O)C(O)c1cc2nc(-c3cnn(C4CC4)c3)c(N3CCC(Oc4ccc(F)cc4F)CC3)nc2cn1 (single isomer, unassigned) [Compound 591]	< 100 nM	1000 to 30000 nM	
CC(C)(O)C(O)c1cc2nc(-c3cnn(CF)c3)c(N3CCC(Oc4ccc(F)cc4F)CC3)nc2cn1 (single isomer, unassigned) [Compound 592]	< 100 nM	100 to 1000 nM	
CC(C)(O)C(O)c1cc2nc(-c3cnn(CF)c3)c(N3CCC(Oc4ccc(F)cc4F)CC3)nc2cn1 (single isomer, unassigned) [Compound 593]	< 100 nM	100 to 1000 nM	
CC(C)(O)[C@H](O)c1cc2nc(N3CCC(Oc4ccc(F)cc4F)CC3)c(-c3cnn(CF)c3)nc2cn1 (single isomer, unassigned) [Compound 596]	100 to 1000 nM	1000 to 30000 nM	
CC(C)(O)[C@H](O)c1cc2nc(N3CCN(Cc4ccc(F)cc4F)CC3)c(-c3cnn(CF)c3)nc2cn1 (single isomer, unassigned) [Compound 598]	100 to 1000 nM	1000 to 30000 nM	
CC(C)(O)[C@@H](O)c1cc2nc(N3CCN(Cc4ccc(F)cc4F)CC3)c(-c3cnn(CF)c3)nc2cn1 (single isomer, unassigned) [Compound 599]	100 to 1000 nM	1000 to 30000 nM	
CC(C)(O)C(O)c1cc2nc(-c3cnn(C4CC4)c3)c(N3CCN(Cc4ccc(F)cc4F)CC3)nc2cn1 (single isomer, unassigned) [Compound 601]	100 to 1000 nM	1000 to 30000 nM	
CC(C)(O)C(O)c1cc2nc(-c3cnn(CF)c3)c(N3CCN(Cc4ccc(F)cc4F)CC3)nc2cn1 (single isomer, unassigned) [Compound 602]	100 to 1000 nM	100 to 1000 nM	
CC(C)(O)[C@H](O)c1cc2nc(N3CCN(Cc4ccccc4F)CC3)c(-c3cnn(C(F)F)c3)nc2cn1 (single isomer, unassigned) [Compound 612]			IC50 (GPR6; procedure of Example 24): 100 to 1000 nM; IC50 (GPR3; procedure of Example 24): 1000 to 30000 nM
CC(C)(O)[C@@H](O)c1cc2nc(N3CCN(Cc4ccccc4F)CC3)c(-c3cnn(C(F)F)c3)nc2cn1 (single isomer, unassigned) [Compound 613]			IC50 (GPR6; procedure of Example 24): 100 to 1000 nM; IC50 (GPR3; procedure of Example 24): 1000 to 30000 nM
COC[C@](C)(O)c1cc2nc(N3CCC(Oc4ccc(F)cc4F)CC3)c(-c3cnn(C)c3)nc2cn1 (single isomer, unassigned) [Compound 614]			IC50 (GPR6; procedure of Example 24): 100 to 1000 nM; IC50 (GPR3; procedure of Example 24): 1000 to 30000 nM
COC[C@@](C)(O)c1cc2nc(N3CCC(Oc4ccc(F)cc4F)CC3)c(-c3cnn(C)c3)nc2cn1 (single isomer, unassigned) [Compound 615]			IC50 (GPR6; procedure of Example 24): 100 to 1000 nM; IC50 (GPR3; procedure of Example 24): 1000 to 30000 nM
CO[C@@H](CO)c1cc2nc(N3CCC(Oc4ccc(F)cc4F)CC3)c(-c3cnn(C)c3)nc2cn1 (single isomer, unassigned) [Compound 640]			IC50 (GPR6; procedure of Example 24): 100 to 1000 nM; IC50 (GPR3; procedure of Example 24): 1000 to 30000 nM
CO[C@H](CO)c1cc2nc(N3CCC(Oc4ccc(F)cc4F)CC3)c(-c3cnn(C)c3)nc2cn1 (single isomer, unassigned) [Compound 641]			IC50 (GPR6; procedure of Example 24): 100 to 1000 nM; IC50 (GPR3; procedure of Example 24): 1000 to 30000 nM
